Source: patent US20230139171A1 (SITA Information Networking Computing UK Limited, priority 2019, published 2023)

How the values were obtained:
Assay type in all cases: cell-based
human TLR8 = target: T1, human TLR8 (Homo sapiens, UniProt Q9NR97); assay: TLR8 inhibition reporter assay (HEK-Blue cells, SEAP reporter, R848 stimulation); conditions: HEK-Blue cells overexpressing human TLR8, SEAP reporter, R848 15.9 μM; read-out: TLR8 IC50
T1 construct: host or cells: HEK-Blue cells
T1 sequence (Q9NR97 27-1041): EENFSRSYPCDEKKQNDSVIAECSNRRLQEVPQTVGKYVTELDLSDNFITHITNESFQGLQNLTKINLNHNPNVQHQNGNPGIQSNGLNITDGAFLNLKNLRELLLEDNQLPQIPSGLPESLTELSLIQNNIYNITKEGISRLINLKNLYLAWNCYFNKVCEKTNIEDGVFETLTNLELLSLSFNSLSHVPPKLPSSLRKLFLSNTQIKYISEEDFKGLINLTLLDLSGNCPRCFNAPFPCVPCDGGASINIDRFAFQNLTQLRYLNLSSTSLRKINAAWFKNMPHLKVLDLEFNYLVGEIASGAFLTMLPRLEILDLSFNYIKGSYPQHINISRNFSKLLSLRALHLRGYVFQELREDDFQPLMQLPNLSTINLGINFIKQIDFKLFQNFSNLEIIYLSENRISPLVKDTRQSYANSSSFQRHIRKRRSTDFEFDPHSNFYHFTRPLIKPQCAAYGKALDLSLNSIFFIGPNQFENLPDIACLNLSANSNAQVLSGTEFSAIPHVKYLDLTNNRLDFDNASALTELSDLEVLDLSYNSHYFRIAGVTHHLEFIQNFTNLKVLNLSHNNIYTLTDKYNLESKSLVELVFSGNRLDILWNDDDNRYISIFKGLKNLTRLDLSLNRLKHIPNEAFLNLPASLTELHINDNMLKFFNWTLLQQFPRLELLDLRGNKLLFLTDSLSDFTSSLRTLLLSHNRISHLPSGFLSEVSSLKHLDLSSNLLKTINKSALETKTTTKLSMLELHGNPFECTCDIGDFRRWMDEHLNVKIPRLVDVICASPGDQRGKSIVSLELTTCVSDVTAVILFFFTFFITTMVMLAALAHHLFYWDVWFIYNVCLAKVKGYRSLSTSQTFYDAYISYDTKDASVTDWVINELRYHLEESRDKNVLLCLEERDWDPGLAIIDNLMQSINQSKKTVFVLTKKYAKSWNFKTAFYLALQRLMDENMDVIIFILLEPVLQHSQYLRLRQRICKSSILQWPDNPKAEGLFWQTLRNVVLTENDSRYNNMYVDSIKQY
Procedure, shortened: (§1)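 Human TLR7/8/9 HEK-Blue reporter lines; dose range 0.05 nM–50 μM; 30 min RT preincubation; stimulus gardiquimod 7.5 μM / R848 15.9 μM / ODN2006 5 nM respectively; 22 h, 37 °C; SEAP detected colorimetrically.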

human TLR9 = target: T2, human TLR9 (Homo sapiens, UniProt Q9NR96); assay: TLR9 inhibition reporter assay (HEK-Blue cells, SEAP reporter, ODN2006 stimulation); conditions: HEK-Blue cells overexpressing human TLR9, SEAP reporter, ODN2006 5 nM
T2 construct: host or cells: HEK-Blue cells
T2 sequence (Q9NR96 26-1032): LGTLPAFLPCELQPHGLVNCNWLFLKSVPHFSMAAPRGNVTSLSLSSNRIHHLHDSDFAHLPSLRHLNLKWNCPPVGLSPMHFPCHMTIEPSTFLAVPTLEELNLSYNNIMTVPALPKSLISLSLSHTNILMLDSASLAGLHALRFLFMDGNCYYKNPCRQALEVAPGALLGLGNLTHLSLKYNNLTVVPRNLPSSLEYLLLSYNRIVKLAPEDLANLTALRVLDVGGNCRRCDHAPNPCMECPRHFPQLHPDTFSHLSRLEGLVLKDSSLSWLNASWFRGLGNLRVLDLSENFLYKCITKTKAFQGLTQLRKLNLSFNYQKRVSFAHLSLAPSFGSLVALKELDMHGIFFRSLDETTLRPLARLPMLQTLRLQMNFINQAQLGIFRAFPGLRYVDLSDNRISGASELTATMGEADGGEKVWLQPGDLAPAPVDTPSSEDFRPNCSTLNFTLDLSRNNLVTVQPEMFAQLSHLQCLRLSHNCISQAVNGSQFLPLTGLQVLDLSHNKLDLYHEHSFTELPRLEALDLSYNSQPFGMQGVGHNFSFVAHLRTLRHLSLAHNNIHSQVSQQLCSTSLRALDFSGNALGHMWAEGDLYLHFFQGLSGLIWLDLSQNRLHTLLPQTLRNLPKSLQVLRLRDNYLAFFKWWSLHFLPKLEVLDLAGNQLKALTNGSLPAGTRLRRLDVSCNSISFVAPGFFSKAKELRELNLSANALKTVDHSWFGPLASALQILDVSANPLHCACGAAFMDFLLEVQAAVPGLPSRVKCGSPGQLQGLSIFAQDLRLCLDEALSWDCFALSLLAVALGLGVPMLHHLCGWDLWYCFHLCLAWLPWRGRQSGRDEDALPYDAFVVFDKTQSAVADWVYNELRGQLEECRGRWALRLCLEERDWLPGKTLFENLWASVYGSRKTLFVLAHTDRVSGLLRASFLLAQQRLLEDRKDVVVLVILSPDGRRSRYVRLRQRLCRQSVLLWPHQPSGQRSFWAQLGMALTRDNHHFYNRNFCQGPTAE
Procedure, shortened: as §1

human TLR7 = target: T3, human TLR7 (Homo sapiens, UniProt Q9NYK1); assay: TLR7 inhibition reporter assay (HEK-Blue cells, SEAP reporter, gardiquimod stimulation); conditions: HEK-Blue cells overexpressing human TLR7, SEAP reporter, gardiquimod 7.5 μM; read-out: TLR7 IC50
T3 construct: host or cells: HEK-Blue cells
T3 sequence (Q9NYK1 27-1049): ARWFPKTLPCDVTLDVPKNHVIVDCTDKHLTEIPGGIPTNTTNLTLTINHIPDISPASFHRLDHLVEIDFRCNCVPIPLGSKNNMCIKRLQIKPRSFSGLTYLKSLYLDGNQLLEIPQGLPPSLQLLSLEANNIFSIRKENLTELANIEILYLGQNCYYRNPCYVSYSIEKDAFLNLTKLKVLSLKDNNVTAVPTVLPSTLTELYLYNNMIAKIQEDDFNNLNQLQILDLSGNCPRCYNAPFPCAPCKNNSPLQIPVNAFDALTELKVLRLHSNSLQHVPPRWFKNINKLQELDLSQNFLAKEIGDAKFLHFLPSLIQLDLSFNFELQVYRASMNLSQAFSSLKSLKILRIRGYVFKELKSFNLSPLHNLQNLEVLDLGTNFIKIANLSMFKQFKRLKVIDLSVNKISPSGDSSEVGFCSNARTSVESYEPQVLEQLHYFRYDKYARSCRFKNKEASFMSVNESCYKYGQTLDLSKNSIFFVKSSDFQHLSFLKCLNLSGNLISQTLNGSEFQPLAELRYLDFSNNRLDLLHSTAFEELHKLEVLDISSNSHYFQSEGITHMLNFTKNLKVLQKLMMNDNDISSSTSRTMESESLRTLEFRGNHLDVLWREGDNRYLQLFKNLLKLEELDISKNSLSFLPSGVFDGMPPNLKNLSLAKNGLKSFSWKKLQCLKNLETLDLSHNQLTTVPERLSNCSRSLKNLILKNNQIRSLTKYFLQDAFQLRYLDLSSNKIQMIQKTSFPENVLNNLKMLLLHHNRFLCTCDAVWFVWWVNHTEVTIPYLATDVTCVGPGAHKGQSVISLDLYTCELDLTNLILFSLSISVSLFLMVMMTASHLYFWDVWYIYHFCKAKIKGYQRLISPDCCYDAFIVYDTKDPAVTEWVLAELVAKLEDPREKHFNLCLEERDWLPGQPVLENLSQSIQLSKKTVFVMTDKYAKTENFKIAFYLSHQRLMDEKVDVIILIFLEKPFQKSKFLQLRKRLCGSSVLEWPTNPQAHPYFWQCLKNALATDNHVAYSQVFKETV
Procedure, shortened: as §1

| SMILES | IC50 (human TLR8) | IC50 (human TLR9) | IC50 (human TLR7) |
| --- | --- | --- | --- |
| COc1cc(-c2[nH]c3sc(C4CCC(N5CC6(CCOCC6)C5)CC4)nc3c2C(C)C)cn2ncnc12 (single isomer, unassigned) [Example 111, 2-(4-(6-isopropyl-5-(8-methoxy-[1,2,4]triazolo[1,5-a]pyridin-6-yl)-4H-pyrrolo[3,2-d]thiazol-2-yl)cyclohexyl)-7-oxa-2-azaspiro[3.5]nonane] | 0.0337 µM | 3.93 µM | 0.00297 µM |
| COc1cc(-c2[nH]c3sc(C4CCC(N5CCC6(CC5)COC6)CC4)nc3c2C(C)C)cn2ncnc12 (single isomer, unassigned) [Example 112, 7-(4-(6-isopropyl-5-(8-methoxy-[1,2,4]triazolo[1,5-a]pyridin-6-yl)-4H-pyrrolo[3,2-d]thiazol-2-yl)cyclohexyl)-2-oxa-7-azaspiro[3.5]nonane] | 0.0283 µM | > 50 µM | 0.0114 µM |
| COc1cc(-c2[nH]c3sc(C4CCC(N5CCC6(CC5)COC6)CC4)nc3c2C(C)C)cn2ncnc12 (single isomer, unassigned) [Example 113, 7-(4-(6-isopropyl-5-(8-methoxy-[1,2,4]triazolo[1,5-a]pyridin-6-yl)-4H-pyrrolo[3,2-d]thiazol-2-yl)cyclohexyl)-2-oxa-7-azaspiro[3.5]nonane] | 0.0271 µM | 7.8 µM | 0.00109 µM |
| COc1cc(-c2[nH]c3sc(C4CCC(N5CCC6(CCNC6)C5)CC4)nc3c2C(C)C)cn2ncnc12 (single isomer, unassigned) [Example 114, 2-(4-(2,7-diazaspiro[4.4]nonan-2-yl)cyclohexyl)-6-isopropyl-5-(8-methoxy-[1,2,4]triazolo[1,5-a]pyridin-6-yl)-4H-pyrrolo[3,2-d]thiazole] | 0.0014 µM | 1.46 µM | 0.00363 µM |
| COc1cc(-c2[nH]c3sc(C4CCC(N5CCC6(CCNC6)C5)CC4)nc3c2C(C)C)cn2ncnc12 (single isomer, unassigned) [Example 115, 2-(4-(2,7-diazaspiro[4.4]nonan-2-yl)cyclohexyl)-6-isopropyl-5-(8-methoxy-[1,2,4]triazolo[1,5-a]pyridin-6-yl)-4H-pyrrolo[3,2-d]thiazole] | 0.017 µM | 1.21 µM | 0.0117 µM |
| COc1cc(-c2[nH]c3sc(C4CCC(NC5CC6(CNC6)C5)CC4)nc3c2C(C)C)cn2ncnc12 (single isomer, unassigned) [Example 116, N-(4-(6-isopropyl-5-(8-methoxy-[1,2,4]triazolo[1,5-a]pyridin-6-yl)-4H-pyrrolo[3,2-d]thiazol-2-yl)cyclohexyl)-2-azaspiro[3.3]heptan-6-amine] | 0.00191 µM | 3.88 µM | 0.00311 µM |
| COc1cc(-c2[nH]c3sc(C4CCC(NC5CC6(CNC6)C5)CC4)nc3c2C(C)C)cn2ncnc12 (single isomer, unassigned) [Example 117, N-(4-(6-isopropyl-5-(8-methoxy-[1,2,4]triazolo[1,5-a]pyridin-6-yl)-4H-pyrrolo[3,2-d]thiazol-2-yl)cyclohexyl)-2-azaspiro[3.3]heptan-6-amine] | 0.0229 µM | 7.51 µM | 0.00572 µM |
| COc1cc(-c2[nH]c3sc(C4CCC(N5CC(O)(C(F)(F)F)C5)CC4)nc3c2C(C)C)cn2ncnc12 (single isomer, unassigned) [Example 118, 1-(4-(6-isopropyl-5-(8-methoxy-[1,2,4]triazolo[1,5-a]pyridin-6-yl)-4H-pyrrolo[3,2-d]thiazol-2-yl)cyclohexyl)-3-(trifluoromethyl)azetidin-3-ol] | 0.00126 µM | 3.3 µM | 0.002 µM |
| COc1cc(-c2[nH]c3sc(C4CCC(N5CC(O)(C(F)(F)F)C5)CC4)nc3c2C(C)C)cn2ncnc12 (single isomer, unassigned) [Example 119, 1-(4-(6-isopropyl-5-(8-methoxy-[1,2,4]triazolo[1,5-a]pyridin-6-yl)-4H-pyrrolo[3,2-d]thiazol-2-yl)cyclohexyl)-3-(trifluoromethyl)azetidin-3-ol] | 0.0542 µM | > 50 µM | 0.00333 µM |
| COc1cc(-c2[nH]c3sc(C4CCC(N5CCNC(=O)C5)CC4)nc3c2C(C)C)cn2ncnc12 (single isomer, unassigned) [Example 120, 4-(4-(6-isopropyl-5-(8-methoxy-[1,2,4]triazolo[1,5-a]pyridin-6-yl)-4H-pyrrolo[3,2-d]thiazol-2-yl)cyclohexyl) piperazin-2-one] | 0.0167 µM | > 50 µM | 0.00419 µM |
| COc1cc(-c2[nH]c3sc(C4CCC(N5CCNC(=O)C5)CC4)nc3c2C(C)C)cn2ncnc12 (single isomer, unassigned) [Example 121, 4-(4-(6-isopropyl-5-(8-methoxy-[1,2,4]triazolo[1,5-a]pyridin-6-yl)-4H-pyrrolo[3,2-d]thiazol-2-yl)cyclohexyl) piperazin-2-one] | 0.0573 µM | > 50 µM | 0.00851 µM |
